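Tested at 5 concentrations; 48 h exposure; 96-well plates; endpoints linearly interpolated, else capped at highest concentration. TGI marks complete inhibition of growth.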
Key:
Test in all cases: NCI tumour cell line growth inhibition, 48 h
786-0 renal = system: 786-0 renal
A549 NSCLC = system: A549 NSCLC
ACHN renal = system: ACHN renal
BT-549 breast = system: BT-549 breast
CAKI-1 renal = system: CAKI-1 renal
CCRF-CEM leukemia = system: CCRF-CEM leukemia
COLO 205 colon = system: COLO 205 colon
DU-145 prostate = system: DU-145 prostate
EKVX NSCLC = system: EKVX NSCLC
HCT-116 colon = system: HCT-116 colon
HCT-15 colon = system: HCT-15 colon
HL-60(TB) leukemia = system: HL-60(TB) leukemia
HOP-62 NSCLC = system: HOP-62 NSCLC
HS 578T breast = system: HS 578T breast
HT29 colon = system: HT29 colon
IGROV1 ovarian = system: IGROV1 ovarian
K-562 leukemia = system: K-562 leukemia
KM12 colon = system: KM12 colon
LOX IMVI melanoma = system: LOX IMVI melanoma
M14 melanoma = system: M14 melanoma
MALME-3M melanoma = system: MALME-3M melanoma
MCF7 breast = system: MCF7 breast
MDA-MB-231 breast = system: MDA-MB-231 breast
MDA-MB-435 = system: MDA-MB-435
MDA-N = system: MDA-N
MOLT-4 leukemia = system: MOLT-4 leukemia
NCI-H226 lung = system: NCI-H226 lung
NCI-H23 lung = system: NCI-H23 lung
NCI-H460 lung = system: NCI-H460 lung
NCI-H522 lung = system: NCI-H522 lung
NCI/ADR-RES ovarian = system: NCI/ADR-RES ovarian
OVCAR-3 ovarian = system: OVCAR-3 ovarian
OVCAR-4 ovarian = system: OVCAR-4 ovarian
OVCAR-5 ovarian = system: OVCAR-5 ovarian
OVCAR-8 ovarian = system: OVCAR-8 ovarian
PC-3 prostate = system: PC-3 prostate
RPMI-8226 leukemia = system: RPMI-8226 leukemia
RXF 393 renal = system: RXF 393 renal
SF-268 CNS = system: SF-268 CNS
SK-MEL-28 melanoma = system: SK-MEL-28 melanoma
SK-MEL-5 melanoma = system: SK-MEL-5 melanoma
SK-OV-3 ovarian = system: SK-OV-3 ovarian
SN12C renal = system: SN12C renal
SNB-19 CNS = system: SNB-19 CNS
SNB-75 CNS = system: SNB-75 CNS
SR leukemia = system: SR leukemia
T-47D breast = system: T-47D breast
TK-10 renal = system: TK-10 renal
U251 CNS = system: U251 CNS
UACC-257 melanoma = system: UACC-257 melanoma
UACC-62 melanoma = system: UACC-62 melanoma
UO-31 renal = system: UO-31 renal
HOP-92 NSCLC = system: HOP-92 NSCLC
SF-295 CNS = system: SF-295 CNS
SK-MEL-2 melanoma = system: SK-MEL-2 melanoma
SW-620 colon = system: SW-620 colon

## O=c1[nH]c(=O)n(C2CC(O)C(CO)O2)cc1OCc1ccccc1 (configuration not stated)
786-0 renal
  TGI: > 100 µM
A549 NSCLC
  TGI: > 100 µM
ACHN renal
  TGI: > 100 µM
BT-549 breast
  TGI: > 100 µM
CAKI-1 renal
  TGI: > 100 µM
CCRF-CEM leukemia
  TGI: > 100 µM
COLO 205 colon
  TGI: > 100 µM
DU-145 prostate
  TGI: > 100 µM
EKVX NSCLC
  TGI: > 100 µM
HCT-116 colon
  TGI: > 100 µM
HCT-15 colon
  TGI: > 100 µM
HL-60(TB) leukemia
  TGI: > 100 µM
HOP-62 NSCLC
  TGI: > 100 µM
HS 578T breast
  TGI: > 100 µM
HT29 colon
  TGI: > 100 µM
IGROV1 ovarian
  TGI: > 100 µM
K-562 leukemia
  TGI: > 100 µM
KM12 colon
  TGI: > 100 µM
LOX IMVI melanoma
  TGI: > 100 µM
M14 melanoma
  TGI: > 100 µM
MALME-3M melanoma
  TGI: > 100 µM
MCF7 breast
  TGI: > 100 µM
MDA-MB-231 breast
  TGI: > 100 µM
MDA-MB-435
  TGI: > 100 µM
MDA-N
  TGI: > 100 µM
MOLT-4 leukemia
  TGI: > 100 µM
NCI-H226 lung
  TGI: > 100 µM
NCI-H23 lung
  TGI: > 100 µM
NCI-H460 lung
  TGI: > 100 µM
NCI-H522 lung
  TGI: > 100 µM
NCI/ADR-RES ovarian
  TGI: > 100 µM
OVCAR-3 ovarian
  TGI: > 100 µM
OVCAR-4 ovarian
  TGI: > 100 µM
OVCAR-5 ovarian
  TGI: > 100 µM
OVCAR-8 ovarian
  TGI: > 100 µM
PC-3 prostate
  TGI: > 100 µM
RPMI-8226 leukemia
  TGI: > 100 µM
RXF 393 renal
  TGI: > 100 µM
SF-268 CNS
  TGI: > 100 µM
SK-MEL-28 melanoma
  TGI: > 100 µM
SK-MEL-5 melanoma
  TGI: > 100 µM
SK-OV-3 ovarian
  TGI: > 100 µM
SN12C renal
  TGI: > 100 µM
SNB-19 CNS
  TGI: > 100 µM
SNB-75 CNS
  TGI: > 100 µM
SR leukemia
  TGI: > 100 µM
T-47D breast
  TGI: > 100 µM
TK-10 renal
  TGI: > 100 µM
U251 CNS
  TGI: > 100 µM
UACC-257 melanoma
  TGI: > 100 µM
UACC-62 melanoma
  TGI: > 100 µM
UO-31 renal
  TGI: > 100 µM

## CC(=O)OC1C(COC(=O)c2ccccc2)OC(Nc2ncc(-c3ccc(Br)cc3)s2)C(OC(=O)c2ccccc2)C1OC(=O)c1ccccc1 (configuration not stated)
786-0 renal
  TGI: > 100 µM
A549 NSCLC
  TGI: > 100 µM
ACHN renal
  TGI: > 100 µM
BT-549 breast
  TGI: > 100 µM
COLO 205 colon
  TGI: > 100 µM
DU-145 prostate
  TGI: > 100 µM
EKVX NSCLC
  TGI: > 100 µM
HCT-116 colon
  TGI: > 100 µM
HOP-62 NSCLC
  TGI: > 100 µM
HOP-92 NSCLC
  TGI: > 100 µM
HS 578T breast
  TGI: > 100 µM
HT29 colon
  TGI: > 100 µM
IGROV1 ovarian
  TGI: > 100 µM
K-562 leukemia
  TGI: > 100 µM
LOX IMVI melanoma
  TGI: > 100 µM
M14 melanoma
  TGI: > 100 µM
MALME-3M melanoma
  TGI: > 100 µM
MCF7 breast
  TGI: > 100 µM
MDA-MB-231 breast
  TGI: > 100 µM
MDA-MB-435
  TGI: > 100 µM
MDA-N
  TGI: > 100 µM
MOLT-4 leukemia
  TGI: > 100 µM
NCI-H226 lung
  TGI: > 100 µM
NCI-H23 lung
  TGI: > 100 µM
NCI-H460 lung
  TGI: > 100 µM
NCI-H522 lung
  TGI: > 100 µM
OVCAR-3 ovarian
  TGI: > 100 µM
OVCAR-4 ovarian
  TGI: > 100 µM
OVCAR-5 ovarian
  TGI: > 100 µM
OVCAR-8 ovarian
  TGI: > 100 µM
PC-3 prostate
  TGI: > 100 µM
RPMI-8226 leukemia
  TGI: > 100 µM
RXF 393 renal
  TGI: > 100 µM
SF-268 CNS
  TGI: > 100 µM
SF-295 CNS
  TGI: > 100 µM
SK-MEL-2 melanoma
  TGI: 35.3 µM
SK-MEL-28 melanoma
  TGI: > 100 µM
SK-MEL-5 melanoma
  TGI: > 100 µM
SK-OV-3 ovarian
  TGI: > 100 µM
SN12C renal
  TGI: > 100 µM
SNB-19 CNS
  TGI: > 100 µM
SNB-75 CNS
  TGI: > 100 µM
SR leukemia
  TGI: > 100 µM
SW-620 colon
  TGI: > 100 µM
T-47D breast
  TGI: > 100 µM
TK-10 renal
  TGI: > 100 µM
U251 CNS
  TGI: > 100 µM
UACC-257 melanoma
  TGI: > 100 µM
UACC-62 melanoma
  TGI: > 100 µM
UO-31 renal
  TGI: > 100 µM
